The values that follow come from US12005122B2, “Compounds and methods for diagnosis and treatment of viral infections” (priority 2016, dated 2024).

The subject of assay [1] is Zika virus. The experiment in a line: Zika virus plaque assay on Vero cells. Format: cell-based. The settings on record: Vero cells infected with Zika virus.
Assay [2] concerns Zika virus. The experiment in a line: Percent infectivity of Zika-infected VERO cells (FIG. 5). In kind it is cell-based. The following applies: FIGS. 4 and 5; 5 μM and 1 μM.

In the case of “dextran 3-[(2-aminoethyl)thio]propyl 17-carboxy-10,13,16-tris(carboxymethyl)-8-oxo-4-thia-7,10,13,16-tetraazaheptadec-1-yl 3-[[2-[[1-imino-2-(D-mannopyranosylthio)ethyl]amino]ethyl]thio]propyl ether complexes [Tilmanocept]”, the “Reduction of Zika virus in infected Vero cells” value in the assay on Zika virus [1] worked out at 99.9%. Also, in the assay on Zika virus [2], the “Effect on Zika infection of VERO cells” value is reported as “no effect”.
